Results taken from US20130041005A1, “PHARMACEUTICAL COMPOSITIONS COMPRISING NEUROPILIN INHIBITORS, AND THEIR USE FOR THE PREVENTION AND/OR TREATMENT OF ANGIOGENIC DISORDERS AND CANCERS” (TRAGEX PHARMA, priority 2011, published 2013).
Entries after “also recorded” stand apart in the source; their conditions may differ.

Key:
HUVEC cells = assay: Tube formation assay; assay type: cell-based; conditions: HUVEC on collagen, IC50 concentration (FIGS. 1D, 3B)
Protocol: Collagen type I (1 mg/ml, BD) was mixed with 0.1N NaOH, 0.1% bicarbonate and 10× in medium EBM-2 and kept on ice until placed into the wells. The assay was prepared in 96-well plate format and the bottom layer of collagen was formed by adding 70 μL of the solution per well and allowing subsequent gelation at 37° C. for 30 min. The HUVEC cells were then seeded on collagen at […] cells per well. After monolayer formation (one day), a second layer of collagen 200 μL per well was prepared according to the same protocol and gently placed on top of the cell layer. The compounds of the invention were added to the cells at the adhesion step (concentration corresponding to the Inhibitory Concentration 50 (IC50)). After 24 and 48 h of incubation at 37° C., tube formation was observed and pictures were taken.

NRP-2 = molecular target: T1, NRP-2 (Homo sapiens, UniProt O60462); assay: ELISA inhibition of VEGF binding to NRP-2
T1 construct: fused on or other part: Possibly an Fc or His tag on the purchased soluble ectodomain
Protocol: Elisa test was performed covering a 96-well microplate (BD Biosciences, France, cat no 353046) surface with 100 μl of 1×PBS, pH 7.4 with Ca^2+ and Mg^2+, (Lonza, France, cat no 17-513F/12) solution containing 0.2 μg/ml of VEGF-R1 (R&D Systems, UK, cat no 321-FL-050/CF) or 2 μg/ml of NRP-1 (R&D Systems, UK, cat no 3870-N1-025) or NRP-2 (R&D Systems, UK, cat no 321-FL). The plate was sealed and incubated overnight at 4° C. After 3 washes with 200 μl of 1×PBS 0.5% (v/v) Tween 20 (Sigma, France, cat no 34078) (Buffer A), the plate was blocked by adding 200 μl of 1×PBS with 0.5% (w/v) BSA (Eurobio, France, cat no GAUBSA01-65) and agitated at 37° C. for 2 h. After washing five times with Buffer A, 50 μl/well of the compounds of the invention at 10 μM were added for the specific signal and 50 μl/well for the non-specific and max binding signal and incubated at 37° C. for 1 hour, shacking. […] Luminescence was quantified with an EnVision™ 2101 Multilabel reader (Perkin Elmer, USA) and the data analyzed by Wallac Envision manager software. […] Non-specific binding is defined as the signal measured in the absence of receptor coated on the microplate. The specific binding was calculated as the difference between total binding and non-specific binding. The percentage of inhibition was calculated as following: […]

[1] = system: breast cancer cells (MDA-MB-231); assay: Apoptosis assay (Annexin V-FITC/PI), MDA-MB-231; assay type: cell-based, Human; conditions: IC50 concentration, 72 h (FIG. 5B)
Protocol: The level of apoptosis in endothelial (HUVEC) and breast cancer cells (MDA-MB-231) was detected by Annexin V-FITC Apoptosis Detection Kit (ref 556547, BD Biosciences, France) according to the manufacturer's instructions. Briefly, HUVEC and MDA-MB-231 cells were treated separately with DMSO (control) and the compounds of the invention at the concentration corresponding to the IC50, obtained by the proliferation assay, for 72 h. After treatment, all cell including both detached and attached cells were collected, centrifugated at 14000 rpm for 5 min and the apoptotic cells were detected by staining with Annexin V-FITC and (propidium iodide) PI. The cells were resuspended in 100 μl Annexin V binding buffer (10 mM Hepes/NaOH, pH 7.4, 140 mM NaCl, […]) containing 5 μl of Annexin V-FITC and 5 μl of PI (propidium iodide). Samples were gently mixed and incubated for 2 h on ice and in the dark. Viable and apoptotic cell were detected by flow citometry (FACS Calibur Becton Dickinson, France). Apoptotic cells include both the early apoptotic portion (Annexin V-positive) and the late apoptotic portion (Annexin V- and PI-positive). Staurosporine is used as a positive control of apoptosis induction.

T1 sequence (O60462 whole entry, the tested form may be a part): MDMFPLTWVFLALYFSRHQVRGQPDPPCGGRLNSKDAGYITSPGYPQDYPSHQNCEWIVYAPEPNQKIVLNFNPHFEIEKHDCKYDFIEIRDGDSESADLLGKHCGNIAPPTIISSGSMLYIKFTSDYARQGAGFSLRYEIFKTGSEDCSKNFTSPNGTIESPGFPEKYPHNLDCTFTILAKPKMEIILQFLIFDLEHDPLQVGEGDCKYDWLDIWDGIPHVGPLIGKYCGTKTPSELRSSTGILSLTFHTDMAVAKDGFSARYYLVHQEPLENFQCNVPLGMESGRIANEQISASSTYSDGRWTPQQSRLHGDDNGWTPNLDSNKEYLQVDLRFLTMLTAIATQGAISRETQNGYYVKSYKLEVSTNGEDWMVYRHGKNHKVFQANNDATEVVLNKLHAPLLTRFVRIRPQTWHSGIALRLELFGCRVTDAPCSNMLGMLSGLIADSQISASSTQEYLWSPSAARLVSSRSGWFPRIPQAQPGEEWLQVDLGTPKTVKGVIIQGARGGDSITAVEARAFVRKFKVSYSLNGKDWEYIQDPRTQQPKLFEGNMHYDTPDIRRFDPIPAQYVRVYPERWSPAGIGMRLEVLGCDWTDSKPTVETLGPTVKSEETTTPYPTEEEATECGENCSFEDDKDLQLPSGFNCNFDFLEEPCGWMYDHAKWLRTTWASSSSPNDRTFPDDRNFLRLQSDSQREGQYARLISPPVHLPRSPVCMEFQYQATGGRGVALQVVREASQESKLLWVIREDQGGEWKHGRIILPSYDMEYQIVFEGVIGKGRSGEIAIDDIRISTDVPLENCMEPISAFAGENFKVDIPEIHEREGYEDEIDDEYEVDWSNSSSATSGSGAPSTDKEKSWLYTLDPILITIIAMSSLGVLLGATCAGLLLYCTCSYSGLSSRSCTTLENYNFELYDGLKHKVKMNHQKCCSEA

Cc1ccc(-c2nc3ccccc3[nH]2)cc1NC(=S)NC(=O)c1ccc2c(c1)OCCO2 [Compound 1, N-[5-(1H-benzimidazol-2-yl)-2-methylphenyl]-N′-(2,3-dihydro-1,4-benzodioxin-6-ylcarbonyl)thiourea] was tested, and the “formation of new blood vessels (tube formation)” value (HUVEC cells) was “inhibited the tube formation; also recorded: effectively inhibited”, the IC50 (NRP-2) was 42 ± 3.15 µM and the “induction of apoptosis in cancer cells” value [1] was “induced the apoptosis; also recorded: induction of apoptosis”.

In the case of O=C(NC(=S)Nc1cccc(-c2nc3ccccc3[nH]2)c1)c1ccc2c(c1)OCCO2 [Compound 2, N-[3-(1H-benzimidazol-2-yl)phenyl]-N′-(2,3-dihydro-1,4-benzodioxin-6-ylcarbonyl)thiourea], the “formation of new blood vessels (tube formation)” value (HUVEC cells) is reported as “inhibited the tube formation; also recorded: effectively inhibited”, the IC50 (NRP-2) is reported as 35 ± 5.23 µM and the “induction of apoptosis in cancer cells” value [1] is reported as “induced the apoptosis; also recorded: induction of apoptosis”.
